According to patent publication US20260047583A1, “Bacillus Strain and Variants Thereof for Inhibition of Plant Diseases” (CHR. HANSEN A/S, priority 2022, published 2026):
Residues, ends and D or L forms follow the SMILES beside them.

Tests used:
F. culmorum = experiment: Inhibitory effect of pure lipopeptides and their combinations on growth in PDB, OD 600 nm; assay type: cell-based, Fusarium culmorum
Protocol: (§1) Increasing concentrations of pure stocks of surfactin (Sigma S3523, FIG. 3A), fengycin (Sigma SMB00292, FIG. 3B) or iturin (Sigma 11774, FIG. 3C) were added to 48-well microtiter plates containing PDB medium and a fixed fungal spore concentration. Inhibitory effect over two different phytopathogenic species was assayed, F. culmorum (FIG. 3, left) and P. irregulare (FIG. 3, right). Plates were incubated at 25° C. without shaking for 60 hours (in dark conditions) and fungal growth was measured by spectrophotometry at 600 nm. Experiments were carried out in biological duplicates with no major variations in inhibition potency of the tested strains.
(§2) Fungal growth inhibition of increasing concentrations of single compounds was compared with compound combinations, where a fixed concentration of one of them was assayed in combination with increasing concentrations of the second metabolite.

P. irregulare = experiment: as above; assay type: cell-based, Pythium irregulare
Protocol: as §1, §2

[1] = even at high concentrations (200-400 μg/ml), FIG. 3A
[2] = in the presence of surfactin, FIG. 4

iturin
effective concentration for growth inhibition (F. culmorum; 60 h, 25° C., FIG. 3C): 9 µg/mL | effective concentration for growth inhibition (P. irregulare; 60 h, 25° C., FIG. 3C): 9 µg/mL

CC(C)CCCCCCCCC[C@@H]1CC(=O)N[C@@H](CCC(=O)O)C(=O)N[C@@H](CC(C)C)C(=O)N[C@H](CC(C)C)C(=O)N[C@@H](C(C)C)C(=O)N[C@@H](CC(=O)O)C(=O)N[C@H](CC(C)C)C(=O)N[C@@H](CC(C)C)C(=O)O1 [surfactin] (HELM PEPTIDE1{E.L.[dL].V.D.[dL].L}|CHEM1{[CC(C)CCCCCCCCC[C@H](CC(=O)[*:1])O[*:2]]}$PEPTIDE1,CHEM1,1:R1-1:R1|PEPTIDE1,CHEM1,7:R2-1:R2$$$V2.0)
inhibitory effect on growth (F. culmorum; [1]): very modest | inhibitory effect on growth (P. irregulare; [1]): very modest

fengycin
increase of bioactivity of fengycin in the presence of surfactin (F. culmorum; [2]): up to 6 fold | effective concentration of fengycin required to inhibit growth (P. irregulare; at surfactin concentrations of 100-200 μg/ml): 12.5 µg/mL | increase of bioactivity of fengycin in the presence of surfactin (P. irregulare; [2]): up to 6 fold
